Patent US6893664B1, “Particle delivery techniques” (Powderject Research Limited, priority 1996, dated 2005)

Key:
Assay type in all cases: physicochemical
[1] = Envelope density by GeoPyc Model 1360 Envelope Density Analyzer; conditions: for change of envelope density by compression, milling, sieving: relative to both the freeze-dried and the sieved preparations
Protocol: (§1) Trehalose 45H3830 (Sigma) and mannitol K91698380-703 (Merck) were either sieved, or freeze dried, compacted, ground and then sieved. A range of the resulting preparations were then analyzed for particle size and density measurements.
(§2) Portions of each sugar excipient were sieved to obtain preparations having reduced particle sizes. Sieving was carried out using stainless steel sieves for two hours at 3 mm amplitude using three sieve sizes (75 μm, 53 μm and 38 μm) without additional processing.
(§3) Alternatively, portions of each sugar excipient were processed using the methods of the invention as follows. 40 g of each of the sugars was dissolved in water, flash frozen, and then freeze dried over night. Samples of each freeze dried preparation were retained, and the remainder compacted in a 13 mm compression die (15,000 lbs/inch^2 for 45 seconds) into discs. The mannitol discs were ground using mortar and pestle, and then sieved as described above at 3 mm amplitude, using three sieve sizes. The trehalose discs were first ground in a vibratory ball mill (Retsch mill), then ground by mortar and pestle and sieved as above.
(§4) Samples from each of the above-described excipient preparations were then analyzed for absolute and envelope density. Absolute density was determined using helium pycnometry, and envelope density was determined using a GeoPyc™ Model 1360 Envelope Density Analyzer (Micromeritics Instrument Corp.).

[2] = Absolute density by helium pycnometry
Protocol: as §1, §2, §3, §4

[3] = Densification of excipients, comparison of compacted particles with like weights of non-densified starting materials; conditions: compacted at 10,000 lbs/in^2 for 30 seconds, ground, sieved > about 50 μm
Protocol: Finely ground powders of pharmaceutical grade mannitol and lactose were obtained and reprocessed using the method of the invention. Particularly, approximately 30 to 50 mg of mannitol or lactose were compacted under pressure using a Carver Laboratory Pellet Press (Model 3620, available from Carver, Inc., Wabash, Ind.). The pressure of compaction was 10,000 lbs/in^2 which was applied for approximately 30 seconds. The resulting compacted pellets were ground using mortar and pestle until visually broken up, and then sieved to select for particles having a size greater than about 50 μm using the methods described in Example 3.

[4] = pretreatment: Freeze Dried, Compressed, Milled, Sieved

OC[C@H]1O[C@H](O[C@H]2O[C@H](CO)[C@@H](O)[C@H](O)[C@H]2O)[C@H](O)[C@@H](O)[C@@H]1O [Trehalose]
Density Envelope ([1]; pretreatment: Freeze Dried): 0.3 g/mL
Density Envelope [1, 4]: 0.8 g/mL
Density Envelope ([1]; pretreatment: Sieved): 0.5 g/mL
change of envelope density by compression, milling, sieving [1]: significant increase in envelope density
Density Absolute ([2]; pretreatment: Freeze Dried): 1.5 g/mL
Density Absolute [2, 4]: 1.5 g/mL
Density Absolute ([2]; pretreatment: Sieved): 1.5 g/mL

OC[C@@H](O)[C@@H](O)[C@H](O)[C@H](O)CO [Mannitol]
Density Envelope ([1]; pretreatment: Freeze Dried): 0.3 g/mL
Density Envelope [1, 4]: 0.8 g/mL
Density Envelope ([1]; pretreatment: Sieved): 0.5 g/mL
change of envelope density by compression, milling, sieving [1]: significant increase in envelope density
Density Absolute ([2]; pretreatment: Freeze Dried): 1.5 g/mL
Density Absolute [2, 4]: 1.5 g/mL
Density Absolute ([2]; pretreatment: Sieved): 1.5 g/mL
size of compacted particles versus like weights of non-densified starting materials [3]: a significant size reduction was observed

OC[C@H]1O[C@@H](O[C@H]2[C@H](O)[C@@H](O)C(O)O[C@@H]2CO)[C@H](O)[C@@H](O)[C@H]1O (stereo partly shown) [lactose]
size of compacted particles versus like weights of non-densified starting materials [3]: a significant size reduction was observed
